Consider `O=C(NCC1(O)CCCCCC1)c1cc(-c2ncc(Cl)cc2C(=O)O)ccc1Cl`, for which the melting point is 201 to 204 °C. `Nc1nc(N)c2c(Sc3ccccc3)cccc2n1` returned a melting point of 195 to 197 °C. As for `Cc1oc(-c2ccccc2)nc1CCOc1ccc(CCC(=O)NC(N)=O)cc1`, the melting point lay in the range of 177 to 178 °C. Regarding `Nc1nc(OCOC(=O)C2CCCC2)ncc1F`, the melting point was 101 to 104 °C. `CS(=O)(=O)OCC1CCN(C(=O)OCc2ccccc2)CC1` showed a melting point of 72 to 74 °C. Regarding `CCOC(=O)N1CCC2C(C1)c1cccc3c1N2CC(=O)N3` (centres undefined), the melting point was 167 to 168 °C. The same measure for `COc1cccc2sc(-c3ccc(C)cc3)nc12`: 98 to 100 °C.

In turn, `COc1ccc(S(=O)(=O)C(CCCCCc2ccc(Cl)cc2)C(=O)O)cc1` (centres undefined) gave a melting point of 58 to 65 °C.

On to `CCc1cccc(NC(=O)NC2N=C(c3ccccc3F)c3ccccc3N(CC(=O)N3CC4CCC(CC4)C3)C2=O)c1` (racemic), for which the melting point fell in the range of 185 to 192 °C.

As to `CC12CCC(=O)C=C1CCC(=Cc1ccccc1)C2=O` (centres undefined), the melting point was 88 °C. The result for `CCc1noc(-c2ncn(-c3cccc(OC)c3)c2COC)n1` reads 66 to 68 °C. The result for `CS(=O)(=O)c1cc(S(F)(F)(F)(F)F)ccc1C(=O)c1cnoc1C1CC1` reads 168 to 170 °C. The molecule `CS(=O)(=O)N1CCSc2cccc(Cl)c2C1` had a melting point of 85 to 86 °C. Take `N#Cc1c(Cl)cccc1C(Cl)(Cl)Cl`: the melting point is 121 to 122 °C.

In turn, `O=C(CON1C(=O)c2ccccc2C1=O)OC(c1ccccc1)c1ccccc1` came in with a melting point of 173 to 175 °C. In turn, `CC1=C(/C=C/S(=O)(=O)NC(C)C)C(c2cccc([N+](=O)[O-])c2)C(C(=O)OCC(F)(F)F)=C(C)N1` (centres undefined) displayed a melting point of 180 to 182 °C.

For `CC(=O)c1cc(Oc2ncccc2C(=O)NC[C@H]2CC[C@H](C(C)(C)O)CC2)ccc1Cl`, the melting point lay in the range of 106 to 108 °C. Consider `c1csc(-c2nc(COc3ccc(CCCn4ccnc4)cn3)co2)c1`, for which the melting point lay within 86 to 87 °C.

In the case of `COc1cccc([C@H]2O[C@H](CC(=O)NCCCOc3cccc(C(=O)O)c3)C(=O)N(CC(C)(C)CO)c3ccc(Cl)cc32)c1OC`, the melting point was 132 to 134 °C. The same measure for `COC(=O)c1ccc(OCCCCCCc2ccc3cc(OCc4ccccc4)c(OCc4ccccc4)cc3c2)cc1`: 121 to 125 °C; for `N#Cc1ccccc1-c1ccc(CN2C(=O)C3(COc4cc5c(cc43)CCO5)c3ccccc32)cc1` (centres undefined): 192 to 194 °C. Turning to `CC(=O)OCCOc1ncc(Cl)c(N)c1Cl`, the melting point lay in the range of 76 to 77 °C. The molecule `Cc1n[nH]c(/C=C/c2ccccc2)n1` showed a melting point of 131 to 134 °C. `CC1CN(c2c(F)cc3c(=O)c(C(=O)O)cn(C(C)C)c3c2F)CCN1` (centres undefined) came in with a melting point of 217 to 218 °C. Regarding `O=C(NCCCn1ccnc1-c1ccccc1)c1cc2ccccc2[nH]1`, the melting point lay within 167 to 169 °C. The result for `CC(=O)OCc1c(C)n(C[C@H]2C[C@@H]2C)c2c(OCc3ccc(F)cc3)nncc12` reads 122 to 123 °C; that for `C[C@@H](NCC1COc2ccccc2N1)c1ccccc1` (some centres undefined), 91 to 92 °C; that for `CC(C)(CF)C(=O)C(Br)Oc1ccc(Cl)cc1` (centres undefined), 73 to 75 °C. In turn, `COC(=O)c1ccc(CBr)cc1O` returned a melting point of 73 to 75 °C. The molecule `COC(=O)c1cc(N)c2nc(C)nn2c1` came in with a melting point of 212 °C. With `CC(C)c1nc(CCCOCc2ccccc2)n(CCO)c1Sc1cc(Cl)cc(Cl)c1`, the melting point was in the range of 104 to 106 °C. In turn, `COc1ccc(C(=O)c2cn(C)c3ccc([N+](=O)[O-])cc23)cc1` gave a melting point of 229 °C. `CCCCc1ccc(OC)c(-c2csc(NC(=O)c3ccc(C(=O)O)cc3)n2)c1` had a melting point of 160 °C. The same measure for `Nc1nc(C(Br)Br)nc(C(Br)Br)n1`: 171 to 173 °C; for `CCCCOc1ccc(NC(=O)c2cnc(C(=O)NCC(=O)OCC)c(Cl)c2)cc1`: 177 to 179 °C. `CCOc1nc(N)nc2sc(-c3ccc(F)cc3)cc12` had a melting point of 142 °C.

As for `C#CCN(Cc1ccc2nc(C)[nH]c(=O)c2c1)c1ccc(C(=O)NCC(OC(C)=O)c2ccc([N+](=O)[O-])cc2)cc1` (centres undefined), the melting point is 198 to 203 °C. The same measure for `CC(Cl)c1ccc(-c2ccc(Cl)cc2)cc1` (centres undefined): 100 to 102 °C; for `CN(C)C=CC(=O)c1cccc(NC=O)c1`: 165 to 167 °C. Take `CSC1=Nc2ccccc2C2=NCC(CBr)N12` (centres undefined): the melting point was in the range of 162 to 163 °C. The molecule `C[C@@H](C(N)=O)c1ccc(NS(=O)(=O)Cc2ccccc2)cc1` yielded a melting point of 68 to 70 °C. For `CCN(CC)CCC1CCCN1CCNC(=O)N1c2ccccc2C(=O)Nc2cccnc21` (centres undefined), the melting point is 127 to 128 °C.

`O=C(O)c1cc(OCc2ccccc2)ccc1OC1CCOC1=O` (centres undefined) registered a melting point of 120 to 122 °C. The same measure for `O=CC1CCC(C2CC[Si](c3ccccc3)(c3ccccc3)CC2)CC1` (centres undefined): 107 °C; for `COc1cc2c3ccc(OC)c(OC)c3n(C(=O)CCc3ccccc3)c2cc1OC`: 106 to 108 °C; for `COCOc1cc(Cl)ccc1-c1cc(-c2cccc(C(=O)OC)c2)c(C#N)c(N)n1`: 159 to 160 °C.

Molecule `COc1ccc(C(=O)Nc2c(Cl)cncc2Cl)c2c1[nH]c1ccccc12` came in with a melting point above 250 °C. `N#Cc1ccc2[nH]c(C(N)=O)cc2c1` had a melting point above 300 °C. For the molecule `COc1c(NS(=O)(=O)c2ccccc2)cccc1C(=O)Nc1ccccc1`, the melting point is 190 to 194 °C. The same measure for `CCOc1cc2ncc(C#N)c(Nc3ccc4cc[nH]c4c3)c2cc1OCC`: 128 to 130 °C. Consider `FC(F)(F)c1cc(-c2ccc(Cl)c(Cl)c2)nc2c(-c3ccncc3)cnn12`, for which the melting point was 260 °C. In turn, `COc1ccc(/C=C/C(=O)Nc2ccccc2C(=O)OCC(=O)O)cc1OC` displayed a melting point of 206 to 209 °C. The result for `O=[N+]([O-])c1ccc2oc(-c3sccc3CBr)nc2c1` reads 146 to 148 °C; that for `COc1ccc2c(c1)C(=O)c1c-2c(Cl)nc2ccc(F)cc12`, 149 to 150 °C; that for `CCOC(=O)c1c(N2CCN(C(=O)OCC)CC2)c2ccc(C)nc2n(CC)c1=O`, 138 to 140 °C.

Take `O=C(Nc1nc(NC(=O)c2cccnc2)nc(NC(=O)c2cccnc2)n1)c1cccnc1`: the melting point was 276 to 278 °C. For the molecule `Nc1c(-c2ccc(I)cc2)nc2ccc(F)cc2c1C(=O)O`, the melting point was 251 to 253 °C. The molecule `O=c1[nH]c2c(Cl)c(Cl)ccc2s1` registered a melting point of 229 °C.

`O=C(c1cccnc1)c1cccc([N+](=O)[O-])c1` returned a melting point of 73 to 76 °C.

Molecule `CSc1nccc(-c2cc(C)ccc2NC(=O)C(C)(C)C)n1` gave a melting point of 119 to 120 °C. For the molecule `CCc1ccc(COc2ccc(CC(NC(=O)c3cc4cc(-c5ccc(Cl)cc5)ccc4s3)C(=O)O)cc2)cc1` (centres undefined), the melting point stood at 205 °C.

`COc1cccc2cccc(S(=O)(=O)N(C)C)c12` had a melting point of 146 to 149 °C.

With `Nc1ccc(-c2noc(-c3cnn4c(C(F)(F)F)cc(-c5ccc(F)c(F)c5)nc34)n2)cn1`, the melting point came out at 262 °C.

In turn, `CCC1(CC)Cc2cc(OC)c(Cl)c(Cl)c2C1=O` gave a melting point of 118 °C. Turning to `Cc1nc[nH]c1CSCCNc1nc(C)c(Cc2ccccc2)c(=O)[nH]1`, the melting point fell in the range of 140 to 142 °C. The molecule `COc1cc(C(=O)c2nc(N)c3ccccn23)ccc1[N+](=O)[O-]` had a melting point of 214 °C. For the molecule `CS(=O)(=O)C(=C1CN(C(c2ccccc2)c2ccccc2)C1)c1ccc(O)cc1`, the melting point came out at 211 °C. Molecule `Cc1cc(C(=O)N2Cc3cccn3Cc3ccccc32)ccc1C1=CCCc2ccccc21` had a melting point of 108 °C. For `CCCP(=O)(CCC)Cc1ccc(NC(=O)C2=Cc3cc(-c4ccc(C)cc4)ccc3OCC2)cc1`, the melting point fell in the range of 219 to 220 °C. For `CCc1cccc(C(C)C)c1N1C(=O)CCN(CC)C1=S`, the melting point is 129 to 132 °C. In turn, `N#Cc1cc(N)ccc1N1CCC(N2CCOCC2)CC1` had a melting point of 84 to 86 °C. Regarding `COC(=O)CNC(=O)c1ccc(Cl)c(Cl)c1`, the melting point lay in the range of 133 to 134 °C. The result for `COc1c(C(N)=O)sc(C(N)=O)c1N=NN(C)C` reads 226 to 228 °C; that for `COc1cccc2c3c(c(=O)[nH]c12)CCN3c1ccccc1`, 75 to 77 °C. Take `Cn1ncnc1COc1nn2c(-c3ccccc3F)nncc2c1-c1ccco1`: the melting point was 188 to 190 °C. For the molecule `O=C(c1cc2ccccc2[nH]1)N1CCOCC1Cl` (centres undefined), the melting point was 254 to 255 °C.

Take `COc1cc(Nc2nccc(-c3ccc(Br)cc3)n2)cc(OC)c1OC`: the melting point worked out at 179 °C.

The molecule `CC(C)c1cc(O)cc2c1C(=O)N(CCl)S2(=O)=O` returned a melting point of 149 to 150 °C. Molecule `COc1cc(-c2ccccc2F)c(Cl)cc1C(=O)N1Cc2ccc(C(=O)O)n2Cc2ccccc21` came in with a melting point of 192 to 194 °C. `CCOC1(OCC)CCC2(CC1)c1cc(O)c(O)cc1CC(C(=O)O)N2C(=O)OCc1ccccc1` (centres undefined) gave a melting point of 132 to 133 °C.

`CC(=O)c1[nH]cnc1C` had a melting point of 140 to 142 °C. Molecule `O=c1nc(-c2cccc(Cl)c2)c2cc(C(c3ccc(Cl)cc3)n3ccnc3-c3ccccc3)ccc2[nH]1` (centres undefined) had a melting point of 170 °C.

The molecule `CC(C)CCC1C(=O)N(CCl)S(=O)(=O)N1C` (centres undefined) showed a melting point of 59 to 60 °C.

`Cc1cc(C23CC4CC(CC(C4)C2)C3)ccc1NS(=O)(=O)c1cc([N+](=O)[O-])ccc1Cl` registered a melting point of 238 °C. Molecule `CCc1n[nH]c(CC)c1CCCCCCOc1ccc([N+](=O)[O-])cc1Cl` returned a melting point of 130 to 132 °C.

With `CN(Cc1ccccc1)C(=O)CCC(=O)c1ccc(Cl)c(S(N)(=O)=O)c1`, the melting point worked out at 162 °C. `COCOCC1Oc2c(OC)cccc2C1=O` (centres undefined) had a melting point of 71 to 72 °C. For `N#Cc1ccc(NS(=O)(=O)c2ccc(Cl)cc2)cc1`, the melting point was in the range of 182 to 184 °C.

`O=S1(=O)NCN(C2CC2)c2c(F)cc(F)c(F)c21` yielded a melting point of 149 to 151 °C.

Usually melting point stands for the temperature of the solid-liquid transition.

The values are drawn from a melting point compilation (Tetko et al.; mined from patent text by program, amines drawn as free bases though some values may be those of a salt).
